Reference: patent publication US7652015B2, “Kinase inhibitors” (Eli Lilly and Company, priority 2006, dated 2010)

Key:
[1] = tested on: Phospho-MAPKAPK2; experiment: Anisomycin-stimulated mice ex-vivo phospho-MAPKAPK2 inhibition assay by flow cytometry; type: in vivo; details: female Balb/c mice, po, blood after 2 hours, ex vivo 10 μg/ml anisomycin, CD11b+Ly6G- cells
Description: Female Balb/c mice with 8-10 week-old age are purchased from Taconic Inc. and dosed po with 0.2 mL volume of compounds at the concentrations of 30, 10, 3, 1 mg/kg. Blood is obtained from cardiac puncture after 2 hours or other indicated time periods and collected in EDTA-containing tubes. 100 μL of blood is incubated at 37° C. for 10 minutes. Whole blood is then mixed with FITC-conjugated rat anti-mouse Ly-6G mAb (1:250) and APC-conjugated rat anti-mouse CD11b mAb (1:100) and stimulated with 10 μg/ml anisomycin. Both cell surface antigen staining and anisomycin stimulation is conducted at 37° C. for 15 min and followed up with Lyse/Fix buffer (BD Biosciences, Cat#558049) for 10 min at room temperature. Lysed blood samples are spun down at 600×g for 8 minutes at room temperature with additional wash once by 4 mL PBS. 200 μL of diluted anti-Phospho-MAPKAPK-2 (Thr334) antibody (1:100 dilution) (Cell Signaling, Cat#3041) and mouse BD Fc Block (1:100 dilution) (BD Biosciences, 553141) in permeabilization Medium B (Caltag, Catg GAS002S-5) are added into blood cells and incubate at room temperature for 30 minutes. After the incubation, 3 mL of stain/wash buffer is added and cells are spanned down as described above with additional wash with 3 ml stain/wash buffer. […] Mean fluorescence of phosphono-MapKap-K2 staining is measured on gated CD11b+Ly6G-cells. […]

[2] = tested on: TNFα; experiment: Inhibition of TNFα in vitro, LPS/interferon-γ treated mouse peritoneal macrophages, Luminex; type: cell-based; details: Peritoneal macrophage, 50 ng/mL LPS and 10 U/mL interferon-γ, 18 hours, read-out: IC50, suppression of TNFα in vitro
Description: 1 mL thioglycolate broth (5.0 g yeast extract, 15.0 g casitone or trypticase, 5.0 g dextrose, 2.5 g sodium chloride, 0.75 g L-cystine, 0.5 g sodium thioglycolate, 1.0 mg resazurin, and 0.75 g agar in 1.0 L distilled water) are injected into the peritoneal cavity of Balb/C female mice. At day 4 or 5 post-injection the mice are sacrificed and then injected i.p. with 4 mL RPMI-1640 medium (BioWhittaker) and the peritoneal macrophages are withdrawn by syringe.
Mouse peritoneal macrophages are counted with a hemocytometer and adjusted to 5×10^5 cells/well in 96-well plates in RPMI-1640 medium with 10% fetal bovine serum. 200 μL/well is plated in 96-well plates and the cells allowed to settle and adhere to the bottom of the well for at least 3 hours. The test compound or standard p38 kinase inhibitor is pre-treated using a series of 8 concentrations for 1 hour at 37° C. […]
50 μL of cytokine detection antibody is added and incubated for 60 seconds at room temperature on a shaker protected from light at setting 6 and then for 30 minutes at setting 3.3 washes are performed with the Bio-Plex Wash Buffer. […] Standards and samples are read on a Luminex machine. These intensity readings are then converted to picogram/milliliter units based on a 12-point standard curve created in duplicate using a four-parameter logistic regression method (Bio-Plex Manager 2.0, Bio-Rad), and the IC50 calculated. […]

[3] = Oral exposure in male Fischer 344 rats; type: in vivo; details: rat, 1 mg/kg, fasted, gavage, suspension 1 mg/mL at 1 mL/kg, plasma
Description: Compounds are screened for oral exposure in male Fischer 344 rats. Animals are fasted overnight and administered test compounds prepared as suspensions in sodium carboxymethylcellulose (1% w/v) containing Tween 80 (0.25% v/v) and antifoam (0.1% w/v). Dose suspensions are prepared at 1 mg/mL and administered at 1 mL/kg by gavage. Blood samples are taken between 0.5 h and 7 h after dose administration and plasma are prepared by centrifugation. Plasma samples are analyzed using online solid phase extraction and LC/MS/MS.

In the case of `CS(=O)(=O)O.Cc1ccc(-n2nc(C(C)(C)C)cc2NC(=O)Nc2ccc(N3CCN(C(=O)c4c(F)cccc4F)CC3)nc2C)cc1` [Example 5, 1-(5-tert-Butyl-2-p-tolyl-2H-pyrazol-3-yl)-3-{6-[4-(2,6-difluoro-benzoyl)-piperazin-1-yl]-2-methyl-pyridin-3-yl}-urea methanesulfonate], the “TMED50, inhibition of p-MAPKAPK synthesis” value [1] is reported as 2.28 mg/kg, the IC50 [2] is reported as 18 nM and the Cmax [3] is reported as 9390 ng/mL. It also gave an AUC(0-t) ([3]; read-out: AUC(0-7h)) of 36800 ng·h/mL.
